Measured values taken from patent publication US11053204B2, “Pyrimidinyloxy benzene derivatives as herbicides” (FMC Corporation, priority 2015, dated 2021).

Legend:
Assay type in all cases: in vivo
soybean (Glycine max) = assay: Test C preemergence, plant response rating; details: scale 0 to 100; for Soybean plant response rating: preemergence
Procedure, shortened: (§1)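 Preemergence: seeds sown in loam–sand blend or silt loam and sprayed with test chemicals in a non-phytotoxic surfactant-containing solvent. Postemergence: potted plants at 2–18 cm (1–4-leaf stage) sprayed with the same formulation. After 13–15 d in greenhouse, visual rating versus controls on 0 (no effect) to 100 (complete control) scale.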

[1] = test system: crabgrass, large (large crabgrass, Digitaria sanguinalis); assay: Test C preemergence, plant response rating; details: scale 0 to 100; for Crabgrass, Large plant response rating: preemergence
Procedure, shortened: as §1

[2] = test system: ryegrass, Italian (Italian ryegrass, Lolium multiflorum); assay: Test C preemergence, plant response rating; details: scale 0 to 100; for Ryegrass, Italian plant response rating: preemergence
Procedure, shortened: as §1

[3] = test system: oilseed rape (Brassica napus); assay: Test C preemergence, plant response rating; details: scale 0 to 100; for Oilseed Rape plant response rating: preemergence
Procedure, shortened: as §1

corn (Zea mays) = assay: Test C preemergence, plant response rating; details: scale 0 to 100; for Corn plant response rating: preemergence
Procedure, shortened: as §1

[4] = test system: foxtail, giant (giant foxtail, Setaria faberii); assay: Test C preemergence, plant response rating; details: scale 0 to 100; for Foxtail, Giant plant response rating: preemergence
Procedure, shortened: as §1

[5] = test system: ragweed (common ragweed, Ambrosia elatior); assay: Test C preemergence, plant response rating; details: scale 0 to 100; for Ragweed plant response rating: preemergence
Procedure, shortened: as §1

[6] = test system: blackgrass (Alopecurus myosuroides); assay: Test C preemergence, plant response rating; details: scale 0 to 100; for Blackgrass plant response rating: preemergence
Procedure, shortened: as §1

[7] = test system: sedge, umbrella (small-flower umbrella sedge, Cyperus difformis); assay: Test B flooded paddy test, plant response rating; details: Cyperus difformis, 312 h; 250 g ai/ha; Flood; scale of 0 to 100 where 0 is no effect and 100 is complete control; 13 to 15 days
Procedure, shortened: (§2)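 Test compounds are applied straight into paddy water held 3 cm above the soil surface, with that flood maintained for the whole test. After 13 to 15 days in the greenhouse, each species is scored visually relative to controls.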

[8] = test system: barnyardgrass (Echinochloa crus-galli); assay: Test B flooded paddy test, plant response rating; details: Echinochloa crus-galli, 312 h; 250 g ai/ha; Flood; scale of 0 to 100 where 0 is no effect and 100 is complete control; 13 to 15 days
Procedure, shortened: as §2

rice (Oryza sativa) = assay: Test B flooded paddy test, plant response rating; details: Oryza sativa, 312 h; 250 g ai/ha; Flood; scale of 0 to 100 where 0 is no effect and 100 is complete control; 13 to 15 days
Procedure, shortened: as §2

[9] = test system: ducksalad (Heteranthera limosa); assay: Test B flooded paddy test, plant response rating; details: Heteranthera limosa, 312 h; 250 g ai/ha; Flood; scale of 0 to 100 where 0 is no effect and 100 is complete control; 13 to 15 days
Procedure, shortened: as §2

[10] = test system: pigweed (Amaranthus retroflexus); assay: Test A preemergence, visual injury rating; details: Amaranthus retroflexus, pre-emergence, 240 h, 0 to 100 scale (0 no effect, 100 complete control), read-out: Pigweed plant response rating
Procedure, shortened: (§3)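 Injury scores run from 0, no effect, to 100, complete control, judged by eye against untreated plants roughly 10 days after treatment. Chemicals carried a surfactant in a non-phytotoxic solvent and went onto loam–sand soil preemergence or onto one- to two-leaf seedlings postemergence.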

kochia (Kochia scoparia) = assay: Test A preemergence, visual injury rating; details: Bassia scoparia, pre-emergence, 240 h, 0 to 100 scale (0 no effect, 100 complete control), read-out: Kochia plant response rating
Procedure, shortened: as §3

[11] = test system: giant foxtail (Setaria faberii); assay: Test A preemergence, visual injury rating; details: Setaria faberi, pre-emergence, 240 h, 0 to 100 scale (0 no effect, 100 complete control), read-out: Foxtail, Giant plant response rating
Procedure, shortened: as §3

[12] = test system: barnyardgrass (Echinochloa crus-galli); assay: Test A preemergence, visual injury rating; details: Echinochloa crus-galli, pre-emergence, 240 h, 0 to 100 scale (0 no effect, 100 complete control), read-out: Barnyardgrass plant response rating
Procedure, shortened: as §3

[13] = test system: ragweed (common ragweed, Ambrosia elatior); assay: Test A preemergence, visual injury rating; details: Ambrosia artemisiifolia, pre-emergence, 240 h, 0 to 100 scale (0 no effect, 100 complete control), read-out: Ragweed plant response rating
Procedure, shortened: as §3

[14] = test system: Italian ryegrass (Lolium multiflorum); assay: Test A preemergence, visual injury rating; details: Lolium multiflorum, pre-emergence, 240 h, 0 to 100 scale (0 no effect, 100 complete control), read-out: Ryegrass, Italian plant response rating
Procedure, shortened: as §3

CCCOC(=O)c1c(Br)cccc1Oc1ncc(Cl)cn1 [Compound 13, propyl 2-bromo-6-[(5-chloro-2-pyrimidinyl)oxy]benzoate]
plant injury at 16 g/ha (soybean (Glycine max); Glycine max, pre-emergence, Preemergence, 16 g ai/ha): 5%
plant injury at 31 g/ha (soybean (Glycine max); Glycine max, pre-emergence, Preemergence, 31 g ai/ha): 5%
Soybean plant response rating (soybean (Glycine max); 4 g ai/ha): 0
Soybean plant response rating (soybean (Glycine max); 8 g ai/ha): 0
pest or weed control at 16 g/ha ([1]; Digitaria sanguinalis, pre-emergence, Preemergence, 16 g ai/ha): 60%
pest or weed control at 31 g/ha ([1]; Digitaria sanguinalis, pre-emergence, Preemergence, 31 g ai/ha): 85%
Crabgrass, Large plant response rating ([1]; 4 g ai/ha): 25
Crabgrass, Large plant response rating ([1]; 8 g ai/ha): 30
pest or weed control at 16 g/ha ([2]; Lolium multiflorum, pre-emergence, Preemergence, 16 g ai/ha): 0%
pest or weed control at 31 g/ha ([2]; Lolium multiflorum, pre-emergence, Preemergence, 31 g ai/ha): 0%
Ryegrass, Italian plant response rating ([2]; 4 g ai/ha): 0
Ryegrass, Italian plant response rating ([2]; 8 g ai/ha): 0
plant injury at 16 g/ha ([3]; Brassica napus, pre-emergence, Preemergence, 16 g ai/ha): 0%
plant injury at 31 g/ha ([3]; Brassica napus, pre-emergence, Preemergence, 31 g ai/ha): 50%
Oilseed Rape plant response rating ([3]; 4 g ai/ha): 0
Oilseed Rape plant response rating ([3]; 8 g ai/ha): 0
Corn plant response rating (crop injury, 0 = no effect, 100 = complete kill) at 16 g/ha (corn (Zea mays); Zea mays, pre-emergence, Preemergence, 16 g ai/ha): 5%
Corn plant response rating (crop injury, 0 = no effect, 100 = complete kill) at 31 g/ha (corn (Zea mays); Zea mays, pre-emergence, Preemergence, 31 g ai/ha): 10%
Corn plant response rating (corn (Zea mays); 4 g ai/ha): 0
Corn plant response rating (corn (Zea mays); 8 g ai/ha): 0
pest or weed control at 16 g/ha ([4]; Setaria faberi, pre-emergence, Preemergence, 16 g ai/ha): 0%
pest or weed control at 31 g/ha ([4]; Setaria faberi, pre-emergence, Preemergence, 31 g ai/ha): 95%
Foxtail, Giant plant response rating ([4]; 4 g ai/ha): 0
Foxtail, Giant plant response rating ([4]; 8 g ai/ha): 0
pest or weed control at 16 g/ha ([5]; Ambrosia artemisiifolia, pre-emergence, Preemergence, 16 g ai/ha): 0%
pest or weed control at 31 g/ha ([5]; Ambrosia artemisiifolia, pre-emergence, Preemergence, 31 g ai/ha): 10%
Ragweed plant response rating ([5]; 4 g ai/ha): 0
Ragweed plant response rating ([5]; 8 g ai/ha): 0
pest or weed control at 16 g/ha ([6]; Alopecurus myosuroides, pre-emergence, Preemergence, 16 g ai/ha): 0%
pest or weed control at 31 g/ha ([6]; Alopecurus myosuroides, pre-emergence, Preemergence, 31 g ai/ha): 0%
Blackgrass plant response rating ([6]; 4 g ai/ha): 0
Blackgrass plant response rating ([6]; 8 g ai/ha): 0
pest or weed control at 250 g/ha [7]: 75%
pest or weed control at 250 g/ha [8]: 0%
plant injury at 250 g/ha (rice (Oryza sativa)): 30%
pest or weed control at 250 g/ha [9]: 70%
pest or weed control at 125 g/ha ([10]; 125 g ai/ha): 100%
pest or weed control at 500 g/ha ([10]; 500 g ai/ha): 100%
pest or weed control at 125 g/ha (kochia (Kochia scoparia); 125 g ai/ha): 90%
pest or weed control at 500 g/ha (kochia (Kochia scoparia); 500 g ai/ha): 100%
pest or weed control at 125 g/ha ([11]; 125 g ai/ha): 100%
pest or weed control at 500 g/ha ([11]; 500 g ai/ha): 100%
pest or weed control at 125 g/ha ([12]; 125 g ai/ha): 100%
pest or weed control at 500 g/ha ([12]; 500 g ai/ha): 100%
pest or weed control at 125 g/ha ([13]; 125 g ai/ha): 0%
pest or weed control at 500 g/ha ([13]; 500 g ai/ha): 0%
pest or weed control at 125 g/ha ([14]; 125 g ai/ha): 10%
pest or weed control at 500 g/ha ([14]; 500 g ai/ha): 90%
